Measurements: patent US4760077A, “Pyrrothine derivatives and pharmaceutical use thereof” (Boehringer Mannheim GmbH, priority 1984, dated 1988)
Where a name gives a salt, the structure may show the parent alone. Read-outs that look alike come from different tables or passages of the source.

Experiments:
[1] = system: allergen-induced degranulation of peripheral leukocytes; assay: Inhibition of the allergen-induced degranulation reaction of peripheral leukocytes (method of Siraganian and Hook); assay type: cell-based; settings: Homo sapiens, Leukocyte
Method: For the detection of the anti-allergic action, there was measured the inhibition of the allergen-induced degranulation reaction of peripheral leukocytes; one operated according to the method of R. P. Siraganian and W. A. Hook (Manual of Clinical Immunology, 2nd edition 1980, pub. N. R. Rose and H. Friedman, Am. Soc. for Microbiology, pages 808 to 821).

[2] = system: gram-positive and gram-negative bacteria, pathogenic fungi and protozoa; settings: Celmer and Solomons, J. Am. Chem. Soc. 77 (1955) 2861; cited from earlier work
mouse [3] = settings: p.o., Table I, for the toxicity cf. literature named; cited from earlier work
mouse [4] = assay: Toxicity LD50 p.o., mouse; assay type: in vivo; settings: thiolutin vs theophylline
[5] = Table I, 50% inhibition in vitro, read-out: ID50 (the source's name)

CCC(=O)Nc1c2sscc-2n(C)c1=O [aureothricin]
IC50 ([1]; read-out: ID50 (the source's name)): 0.9 µM
antibiotic action, in words [2]: action against gram-positive and gram-negative bacteria, pathogenic fungi and protozoa

CN(C)c1c2sscc-2n(C)c1=O [Example 4, N,N-Dimethylpyrrothine]
IC50 [1, 5]: 4.6 µM

Cn1c2cssc-2c(N)c1=O [pyrrothine, 4-methyl-6-amino-1,2-dithiolo[4,3-b]pyrrol-5(4H)-one]
IC50 [1, 5]: 0.9 µM

Cn1c(=O)c2[nH]cnc2n(C)c1=O [theophylline, reference compound]
IC50 [1, 5]: 5000 µM

CN(C)C1=C(S)C(=CS)N(C)C1=O [Example 5, 3-Dimethylamino-4-mercapto-5-mercaptomethylene-1-methylpyrrolin-2-one disodium salt]
IC50 ([1]; Examples 3 to 5, no unit printed at the value, read-out: ID50 (the source's name)): 50 µM
IC50 [1, 5]: 5 µM

CC(C)C(=O)Nc1c2sscc-2n(C)c1=O [isobutyrylpyrrothine]
IC50 [1, 5]: 1.7 µM

CC(=O)Nc1c2sscc-2n(C)c1=O [thiolutin]
IC50 ([1]; read-out: ID50): 0.4 µM
antibiotic action, in words [2]: action against gram-positive and gram-negative bacteria, pathogenic fungi and protozoa
LD50 (mouse [3]): 25 mg/kg
factor of therapeutic index against comparison compound theophylline (mouse [4]): more than 10^4

CC(=O)NC1=C(S)C(=CS)N(C)C1=O [Example 3, 3-Acetamido-4-mercapto-5-mercaptomethylene-1-methylpyrrolin-2-one disodium salt]
IC50 [1, 5]: 2.5 µM
